Assays:
hBChE [1] = molecular target: T1, hBChE (Homo sapiens, UniProt P06276); assay: ChE IC50 determination, method of Ellman, hBChE; format: biochemical
Procedure: The inhibitory potencies of the compounds against the ChEs were determined using the method of Ellman following the procedure described previously. Briefly, compound stock solutions in DMSO were incubated with Ellman’s reagent and ChEs (final concentrations: 370 μmol/L Ellman’s reagent, approximately 1 nmol/L or 50 pmol/L hBChE or hAChE, respectively) in 0.1 mol/L sodium phosphate pH 8.0 for 5 min at 20 °C. For time-dependency measurements, the pre-incubation time was varied (1, 5, 15, 30 or 60 min). The reactions were started by the addition of the substrate (final concentration, 500 μmol/L butyrylthiocholine iodide or acetylthiocholine iodide for hBChE and hAChE, respectively). The final content of DMSO was always 1%. The increase in absorbance at 412 nm was monitored for 2 min using a 96-well microplate reader (Synergy HT, BioTek Instruments, VT, USA). The initial velocities in the presence (vi) and absence (v0) of the test compounds were calculated. The inhibitory potencies were expressed as the residual activities, according to Eq. (1):(1) RA = vi / v0
For IC50 determinations, at least seven different concentrations for each compound were used. The IC50 values were obtained by plotting the residual ChE activities against the applied inhibitor concentrations, with the experimental data fitted to a four-parameter logistic function (GraphPad Prism 9.4). Tacrine and donepezil were used as positive controls.

[2] = MTS assay, metabolic activity; format: cell-based; settings: human, SH-SY5Y neuroblastoma cells, read-out: cytotoxic EC50
Procedure: (§1) Cell culture and treatments The human neuroblastoma SH-SY5Y cell line was purchased from American Type Culture Collection (Manassas, VA, USA). Cells were cultured in Advanced Dulbecco’s modified Eagle’s medium (Gibco, Thermo Fisher Scientific, Waltham, MA, USA) supplemented with 10% fetal bovine serum (FBS, Gibco), 2 mmol/L L-glutamine, 50 U/mL penicillin and 50 μg/mL streptomycin (Sigma, St. Louis, MO, USA) in a humidified atmosphere of 95% air and 5% CO2 at 37 °C, and grown to 80% confluence. Prior to cell treatment, complete medium was replaced with serum-reduced medium (i.e., with 2% FBS). Compounds were prepared as a stock solution of 50 mmol/L in DMSO.
MTS assay SH-SY5Y cells were seeded in 96-well plates (10^4/well) and assessed by MTS ([3-(4,5-dimethylthiazol-2-yl)-5-(3-carboxymethoxyphenyl)-2-(4-sulfophenyl)-2H-tetrazolium, inner salt) assay for their response to compounds. Cells were treated with increasing concentrations of compounds (0.1–10 μmol/L for 5, 1–100 μmol/L for 6–8) in a serum-reduced medium, and metabolic activity was assessed after 24 h (5) or 48 h (6–8) using the CellTiter 96® Aqueous One Solution Cell Proliferation Assay (Promega, Madison, WI, USA), in accordance with the manufacturer’s instructions. Absorbance was measured with an automatic microplate reader (Tecan Safire^2, Switzerland) at 492 nm. Results are presented as a percentage of the control (DMSO).

SH-SY5Y cells = assay: Neuroprotection assay against Aβ1–42, 7-AAD flow cytometry; format: cell-based, human; settings: 5 μmol/L compound, 5 μmol/L fibrillar Aβ1–42, 48 h
Procedure: as §1
Neuroprotection assay The neuroprotective effect of compounds on cytotoxic effect of Aβ1–42 was determined with the fluorescent intercalator 7-aminoactinomycin D (7-AAD) assessed by flow cytometry. Prior to cell treatment, the peptide Aβ1–42 (Merck Millipore, Darmstadt, Germany) was dissolved in DMSO at a concentration of 1 mmol/L and was incubated at 100 μmol/L in 1 mol/L HCl at 37 °C for 24 h to induce Aβ aggregation. […] Cells were then analysed for cytotoxicity by flow cytometry on Attune NxT flow cytometer (Thermo Fisher Scientific). The percentage of 7AAD positive (7AADpos) cells was evaluated using FlowJo software (FlowJo, LLC., Ashland, OR, USA).

BALB/c mice = assay: Acute in vivo toxicity
Description: All mice used were 9–15 weeks old wild-type BALB/c mice bred in the Laboratory of Animal Genomics at the Faculty of Veterinary Medicine, University of Ljubljana. For intravenous administration, 4 males and one female were additionally purchased from Envigo RMS Holding Corp. Mice were conventionally bred in open polycarbonate cages (Tecniplast, Buguggiate, Italy) and provided with wood chip bedding (Lignocel®, Rettenmaier and Sons, Germany). Mice were kept under standard conditions, i.e., a 12:12 dark–light cycle (LED, CCT 3000 K, ≤ 25 lux above the cage), at temperature 21–24 °C, and 50%–60% humidity. They were fed irradiated rodent diet with minimal levels of phytoestrogens (Teklad global 16% protein rodent diet®, BN 2916, Envigo, Udine, Italy) and had access to drinkable tap water ad libitum. The in vivo study was evaluated by the National Ethics Committee for Animal Experiments and approved by the Veterinary Administration of the Republic of Slovenia; license number document no. U34401-10/2021/8, U34401-10/2021/13, and U34401-10/2021/1.
According to the OECD guidelines for acute toxicity testing, compound 8 was initially tested at 10 mg/kg dosage (10-fold the intended therapeutic dose (1 mg/kg)) in 3 female mice and repeated on 3 additional animals. […] After this fasting period, the animals were weighed and compound 8 was administered by oral gavage at 200 μL/20 g body weight using flexible plastic feeding tubes (20G × 30 mm, Instech Laboratories, USA). After administration, the animals were not fed for an additional hour. The mice were then observed regularly for the first 24 h, with particular attention paid to the first 4 h, and then daily for a total of 14 days, with attention paid to the changes in respiratory rate, heart rate, skin and fur, eyes and mucous membranes, behavioural patterns, and especially to the acute CNS toxicity symptoms (tremors, twitching, salivation, diarrhoea, lethargy, sleep, coma). At the end of the 14-day observation period, all experimental animals were euthanized with CO2 and cervical dislocation.

hBChE [3] = molecular target: T1, hBChE; settings: expected nearly identical to compound 11 of the previous study (same carbamoyl residue at Ser198); cited from earlier work
[4] = Plasma and brain distribution profile in mice; settings: 1 mg/kg, intravenous and peroral
Description: Animals All mice used were 9–15 weeks old wild-type BALB/c mice bred in the Laboratory of Animal Genomics at the Faculty of Veterinary Medicine, University of Ljubljana. For intravenous administration, 4 males and one female were additionally purchased from Envigo RMS Holding Corp. Mice were conventionally bred in open polycarbonate cages (Tecniplast, Buguggiate, Italy) and provided with wood chip bedding (Lignocel®, Rettenmaier and Sons, Germany). Mice were kept under standard conditions, i.e., a 12:12 dark–light cycle (LED, CCT 3000 K, ≤ 25 lux above the cage), at temperature 21–24 °C, and 50%–60% humidity. They were fed irradiated rodent diet with minimal levels of phytoestrogens (Teklad global 16% protein rodent diet®, BN 2916, Envigo, Udine, Italy) and had access to drinkable tap water ad libitum.
For each time point, 4 mice, two females and two males, were used. A total of 24 animals were used (n = 24) for each route of administration. […] Peroral administration was performed via flexible plastic feeding tubes (20G × 30 mm, Instech Laboratories, USA) by gavage, with volume dose of 200 μL/20 g body weight. Intravenous administration into the tail vein was performed under isoflurane inhalation anesthesia (Isoflurin®, VetPharma, Spain) using a syringe (INSULIN100, 29G × 1/2″, 12.7 mm, CHINS00329, Chirana T. Injecta, a.s., Slovakia) with a volume dose of 150 μL. […]

T1 sequence (P06276 29-602): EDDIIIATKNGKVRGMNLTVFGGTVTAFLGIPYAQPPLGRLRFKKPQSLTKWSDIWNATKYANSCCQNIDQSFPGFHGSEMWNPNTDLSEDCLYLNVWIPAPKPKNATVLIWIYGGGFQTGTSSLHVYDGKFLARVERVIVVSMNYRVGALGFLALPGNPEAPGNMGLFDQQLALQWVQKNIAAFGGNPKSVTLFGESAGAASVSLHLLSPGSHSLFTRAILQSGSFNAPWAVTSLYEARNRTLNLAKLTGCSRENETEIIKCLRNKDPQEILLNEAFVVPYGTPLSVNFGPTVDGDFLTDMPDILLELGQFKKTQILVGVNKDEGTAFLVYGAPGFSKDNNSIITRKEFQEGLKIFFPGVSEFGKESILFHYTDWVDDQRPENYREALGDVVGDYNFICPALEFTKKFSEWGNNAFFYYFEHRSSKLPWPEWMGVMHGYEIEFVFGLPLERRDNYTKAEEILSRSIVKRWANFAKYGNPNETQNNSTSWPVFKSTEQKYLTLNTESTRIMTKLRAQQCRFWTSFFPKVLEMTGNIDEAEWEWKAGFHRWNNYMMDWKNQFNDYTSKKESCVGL

CCN(CC)C(=O)n1cnc(C2(CC)Cc3ccccc3C2)c1 [Compound 8, N,N-Diethyl-4-(2-ethylindan-2-yl)-1H-imidazole-1-carboxamide]
IC50 (hBChE [1]; after 5 min preincubation, read-out: hBChE IC50±SD): 1520 ± 90 nM | hBChE time-dependency observed: Yes/No (hBChE [1]; pre-incubation time varied): Yes | EC50 at 48 h [2]: > 100000 nM | 7-AAD-positive cells after Aβ1–42 treatment (SH-SY5Y cells): significant reduction | effects in preliminary safety testing (BALB/c mice; 1 mg/kg p.o., mice): no effects were observed | survival (BALB/c mice; 10 mg/kg p.o., 14-day observation): All animals survived | acute cholinergic side effects (salivation, tremors) (BALB/c mice; 10 mg/kg p.o., mice): No acute cholinergic side effects | effects in preliminary safety testing (BALB/c mice; 10 mg/kg p.o., mice): some adrenergic symptoms | onset of symptoms after administration (BALB/c mice; 10 mg/kg p.o., mice): 15 to 30 min | time after which all effects subsided (BALB/c mice; 10 mg/kg p.o., mice): 4 to 5 h | kdecarb, decarbamoylation (hBChE [3]): ∼0.22[53] ×10^–2 h^–1 | t1/2, decarbamoylation (hBChE [3]): ∼318[53] h | blood–brain barrier permeation [4]: quickly permeated the blood–brain barrier

From paper PMC12491715 (Acta Pharmaceutica Sinica. B, 2025)
